From ChEMBL document CHEMBL1201862, “PubChem BioAssay data set” (2004)
Where a name gives a salt, the structure may show the parent alone.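 Five compound concentrations were applied to cells in 96-well plates for 48 hours; endpoints were derived by simple linear interpolation of the resulting dose-response curve. GI50 marks 50% less growth.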 The source made the active and inactive calls. Rule as the data show it: active = GI50 up to about 1.1 µM and inactive = higher.

Columns and labels:
Experiment in all cases: inhibition of tumour cell growth, NCI panel, 48 h
A498 = system: A498
A549 = system: A549
COLO 205 = system: COLO 205
HCC 2998 = system: HCC 2998
HCT-15 = system: HCT-15
HT-29 = system: HT-29
Hs-578T = system: Hs-578T
LOX IMVI = system: LOX IMVI
Malme-3M = system: Malme-3M
NCI/ADR-RES = system: NCI/ADR-RES
OVCAR-3 = system: OVCAR-3
OVCAR-5 = system: OVCAR-5
RXF 393 = system: RXF 393
SF-268 = system: SF-268
SNB-75 = system: SNB-75
SR = system: SR
T47D = system: T47D
TK-10 = system: TK-10
U-251 = system: U-251
UACC-257 = system: UACC-257

Measured: GI50

O=C(Nc1cccc(-c2cn3ccccc3n2)c1)c1ccncc1
inactive: A498 76 µM | A549 44.9 µM | COLO 205 31.3 µM | HCC 2998 56.2 µM | HT-29 35.8 µM | Hs-578T 38.1 µM | LOX IMVI 38.3 µM | Malme-3M 29.3 µM | NCI/ADR-RES 21.7 µM | OVCAR-3 35.1 µM | OVCAR-5 > 100 µM | RXF 393 64.4 µM | SF-268 41.4 µM | SNB-75 46.1 µM | SR 24 µM | T47D 19.2 µM | TK-10 56.9 µM | U-251 48.2 µM | UACC-257 29.9 µM
24.2 µM: HCT-15

Cc1cc(N(CCOS(C)(=O)=O)CCOS(C)(=O)=O)ccc1/C=N/c1ccc(-c2csc(-c3ccccc3)n2)c(Cl)c1
inactive: A498 1.6 µM | A549 1.95 µM | COLO 205 1.64 µM | HCC 2998 2.93 µM | HT-29 9.91 µM | Hs-578T 18 µM | LOX IMVI 6.73 µM | Malme-3M 11.9 µM | NCI/ADR-RES 13.3 µM | OVCAR-3 8.65 µM | OVCAR-5 17.3 µM | RXF 393 2.12 µM | SF-268 8.63 µM | SNB-75 1.8 µM | SR 1.54 µM | T47D 15.4 µM | TK-10 10.5 µM | U-251 16.1 µM | UACC-257 20.4 µM
8.04 µM: HCT-15

O=c1oc2ccccc2c(-c2ccc(O)cc2)c1Oc1ccc(Cl)cc1
30.1 µM: HCT-15
inactive: A498 26.6 µM | A549 19.3 µM | COLO 205 23.2 µM | HCC 2998 16.9 µM | HT-29 20.1 µM | Hs-578T 16.1 µM | LOX IMVI 24.7 µM | Malme-3M 18.2 µM | NCI/ADR-RES 24.5 µM | OVCAR-3 14.9 µM | OVCAR-5 31.8 µM | RXF 393 19.4 µM | SF-268 23.6 µM | SNB-75 18.7 µM | SR 18.2 µM | T47D 29.6 µM | TK-10 20.7 µM | U-251 22.3 µM | UACC-257 28.2 µM

NCCSSCCN [CYSTAMINE HYDROCHLORIDE]
inactive: A498 > 100 µM | A549 > 100 µM | COLO 205 > 100 µM | HCC 2998 > 100 µM | HT-29 > 100 µM | Hs-578T > 100 µM | LOX IMVI > 100 µM | Malme-3M > 100 µM | NCI/ADR-RES > 100 µM | OVCAR-3 > 100 µM | OVCAR-5 > 100 µM | RXF 393 > 100 µM | SF-268 > 100 µM | SNB-75 > 100 µM | SR > 100 µM | T47D > 100 µM | TK-10 > 100 µM | U-251 > 100 µM
> 100 µM: HCT-15

Cc1ccc([N+](=O)[O-])cc1S(=O)(=O)Nc1ccc(C2=NOC(c3ccccc3O)C2)cc1 (stereo not given)
3.44 µM: HCT-15
active: SR 0.577 µM
inactive: A498 2.84 µM | A549 4.97 µM | COLO 205 3.54 µM | HCC 2998 7.01 µM | HT-29 4.61 µM | Hs-578T 9.98 µM | LOX IMVI 9.95 µM | Malme-3M 3.95 µM | NCI/ADR-RES 2.54 µM | OVCAR-3 3.72 µM | OVCAR-5 33.4 µM | RXF 393 2.26 µM | SF-268 8.61 µM | SNB-75 3.6 µM | T47D 6 µM | TK-10 18.3 µM | UACC-257 5.97 µM

C=C[C@@]1(C)CC(=O)[C@]2(O)[C@@]3(C)[C@@H](O)CCC(C)(C)[C@@H]3[C@H](O)[C@@H](OC(C)=O)[C@@]2(C)O1
> 100 µM: HCT-15
inactive: A498 > 100 µM | A549 > 100 µM | COLO 205 > 100 µM | HCC 2998 > 100 µM | HT-29 68.7 µM | Hs-578T 70.1 µM | LOX IMVI > 100 µM | Malme-3M > 100 µM | NCI/ADR-RES > 100 µM | OVCAR-3 > 100 µM | OVCAR-5 72.6 µM | RXF 393 11.2 µM | SF-268 > 100 µM | SNB-75 > 100 µM | SR > 100 µM | T47D 54.5 µM | TK-10 > 100 µM | U-251 > 100 µM | UACC-257 > 100 µM

O=c1ccn([C@@H]2C[C@H]2CO)c(=O)[nH]1
inactive: A498 > 100 µM | A549 > 100 µM | COLO 205 > 100 µM | HCC 2998 > 100 µM | HT-29 > 100 µM | Hs-578T > 100 µM | LOX IMVI > 100 µM | Malme-3M > 100 µM | NCI/ADR-RES > 100 µM | OVCAR-5 > 100 µM | RXF 393 > 100 µM | SF-268 > 100 µM | SNB-75 > 100 µM | SR > 100 µM | T47D > 100 µM | TK-10 > 100 µM | U-251 > 100 µM | UACC-257 > 100 µM
> 100 µM: HCT-15

CC1(C)C2C=CC1(C)C1(CC2)OCCO1 (stereo not given)
> 100 µM: HCT-15
inactive: A498 > 100 µM | COLO 205 > 100 µM | HCC 2998 > 100 µM | HT-29 > 100 µM | Hs-578T > 100 µM | LOX IMVI > 100 µM | Malme-3M > 100 µM | NCI/ADR-RES > 100 µM | OVCAR-3 > 100 µM | OVCAR-5 > 100 µM | RXF 393 > 100 µM | SF-268 > 100 µM | SNB-75 66.1 µM | SR > 100 µM | T47D > 100 µM | TK-10 > 100 µM | U-251 > 100 µM | UACC-257 > 100 µM

CCn1c2ccccc2c2ccc(C3C4C(=O)N(c5cccc6ccccc56)C(=O)C4ON3C(C(N)=O)c3ccccc3)cc21 (stereo not given)
13.3 µM: HCT-15
inactive: A498 2.63 µM | A549 > 25 µM | COLO 205 10.1 µM | HT-29 8.24 µM | Hs-578T > 25 µM | LOX IMVI 13.2 µM | Malme-3M > 25 µM | NCI/ADR-RES > 25 µM | OVCAR-3 13.7 µM | OVCAR-5 15.1 µM | RXF 393 9.89 µM | SF-268 > 25 µM | SNB-75 > 25 µM | SR 9.12 µM | T47D 17.9 µM | TK-10 7.16 µM | U-251 10.8 µM | UACC-257 7.73 µM

O=Cc1ccc(OCc2cccc(COc3ccc(/C=N\Nc4ccc([N+](=O)[O-])cc4[N+](=O)[O-])cc3)n2)cc1
inactive: A498 > 100 µM | A549 > 100 µM | COLO 205 > 100 µM | HCC 2998 > 100 µM | HT-29 > 100 µM | Hs-578T > 100 µM | LOX IMVI > 100 µM | Malme-3M > 100 µM | NCI/ADR-RES > 100 µM | OVCAR-3 > 100 µM | OVCAR-5 > 100 µM | RXF 393 43.2 µM | SF-268 > 100 µM | SR 22.1 µM | T47D > 100 µM | TK-10 > 100 µM | U-251 63.5 µM | UACC-257 > 100 µM
> 100 µM: HCT-15

O=c1cc(NNCc2ccccc2)[nH]c(=O)[nH]1
> 100 µM: HCT-15
inactive: A498 > 100 µM | A549 > 100 µM | COLO 205 > 100 µM | HCC 2998 > 100 µM | HT-29 > 100 µM | Hs-578T 58.1 µM | LOX IMVI > 100 µM | Malme-3M 80.5 µM | NCI/ADR-RES > 100 µM | OVCAR-3 > 100 µM | OVCAR-5 > 100 µM | RXF 393 > 100 µM | SF-268 > 100 µM | SR > 100 µM | TK-10 > 100 µM | U-251 > 100 µM | UACC-257 > 100 µM
active: T47D 0.678 µM

O=C(c1cc(Cl)cc(Cl)c1)N(C(=S)OC12CC3CC(CC(C3)C1)C2)c1ccccc1
inactive: A498 34.9 µM | A549 42.7 µM | COLO 205 18.6 µM | HCC 2998 33.8 µM | HT-29 39.4 µM | Hs-578T 48.9 µM | Malme-3M 49.7 µM | NCI/ADR-RES 37.3 µM | OVCAR-3 45.3 µM | OVCAR-5 46.3 µM | RXF 393 41.2 µM | SF-268 52.8 µM | SNB-75 61 µM | SR 43.1 µM | T47D 61.2 µM | TK-10 53.3 µM | U-251 33 µM | UACC-257 43.3 µM
34.6 µM: HCT-15

CC[C@]12C=CCN3CC[C@@]4(c5cc(Br)c(OC)cc5N(C)[C@H]4[C@@](O)(C(=O)N[C@@H](Cc4ccc(O)cc4)C(=O)OC)[C@@H]1O)[C@@H]32
inactive: A498 18.1 µM | A549 25.7 µM | COLO 205 18.6 µM | HCC 2998 25.5 µM | HT-29 14.6 µM | Hs-578T 20.7 µM | LOX IMVI 14.8 µM | Malme-3M 14.1 µM | NCI/ADR-RES 20.7 µM | OVCAR-3 25.6 µM | OVCAR-5 45.5 µM | RXF 393 17.6 µM | SF-268 13.6 µM | SR 13.8 µM | T47D 57.7 µM | TK-10 22.6 µM | U-251 14.6 µM | UACC-257 16.3 µM
23.3 µM: HCT-15

C[C@@H](CCO)OC1OC(COC(=O)C(C)(C)C)C(OC(=O)C(C)(C)C)C(OC(=O)C(C)(C)C)C1OC(=O)C(C)(C)C (stereo not given in full)
inactive: A498 > 100 µM | A549 14.1 µM | COLO 205 > 100 µM | HCC 2998 16.6 µM | HT-29 13.6 µM | Hs-578T 20.7 µM | LOX IMVI 51.4 µM | NCI/ADR-RES > 100 µM | OVCAR-3 86.7 µM | OVCAR-5 > 100 µM | RXF 393 7.46 µM | SF-268 50.6 µM | SNB-75 32.1 µM | SR 84.7 µM | T47D > 100 µM | TK-10 50.7 µM | U-251 16.7 µM | UACC-257 25.5 µM
32.4 µM: HCT-15
